In assay [1] the target is T1, Pameα7 (Periplaneta americana, UniProt A0A5P8U3L1).
T1 construct: cDNA in pGEM-HEJUEL injected in Xenopus laevis oocytes; homomeric receptor (pentamer by known biology)
T1 sequence (A0A5P8U3L1 42-518): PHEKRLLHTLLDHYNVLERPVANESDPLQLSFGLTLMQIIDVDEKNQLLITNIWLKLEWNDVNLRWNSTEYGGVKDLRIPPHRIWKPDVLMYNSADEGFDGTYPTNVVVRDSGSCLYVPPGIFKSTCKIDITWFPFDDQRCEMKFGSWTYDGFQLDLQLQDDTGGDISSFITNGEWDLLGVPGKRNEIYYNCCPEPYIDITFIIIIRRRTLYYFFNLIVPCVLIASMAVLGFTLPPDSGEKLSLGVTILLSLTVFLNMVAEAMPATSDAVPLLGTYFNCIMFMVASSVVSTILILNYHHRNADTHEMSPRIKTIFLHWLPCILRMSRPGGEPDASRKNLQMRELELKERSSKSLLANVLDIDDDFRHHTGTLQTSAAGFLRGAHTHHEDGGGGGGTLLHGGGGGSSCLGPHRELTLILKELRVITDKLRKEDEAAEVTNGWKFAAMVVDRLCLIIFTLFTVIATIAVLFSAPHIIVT
The assay can be described thus: two-electrode voltage clamp, Xenopus oocytes, agonist currents. The assay is classed as cell-based. The following applies: 10 mM, -80 mV, 0.5 μM atropine, EC50 could not be calculated, unreliable (low currents).

Assay [2] addresses T1, Pameα7. The description is as above. Format: cell-based. As to conditions: cDNA-injected oocytes without RIC-3, -80 mV, 0.5 μM atropine, 20-22 °C, normalized to 10 mM nicotine, unreliable (native currents at 5 and 10 mM nicotine).

Structures are written as SMILES.

Regarding `CC(=O)OCC[N+](C)(C)C` [acetylcholine], the “two-electrode voltage clamp, Xenopus oocytes, agonist currents” value in assay [1] is “ACh and nicotine induced inward currents”.

On to `CN1CCC[C@H]1c1cccnc1` [nicotine], for which the concentration for a half-maximal effect (EC50) in assay [2] came out at 790 µM.

These data come from PMC7221154, “Cloning and Expression of Cockroach α7 Nicotinic Acetylcholine Receptor Subunit” (Frontiers in Physiology, 2020).
